Where a SMILES comes first, the peptide text is derived from it. Where no end group is shown, it is not given here. The star is where a group is joined. Myristoyl = CCCCCCCCCCCCCC(=O)*
What was measured:
human neutrophils = assay: PMA-stimulated MPO release from isolated human neutrophils (TMB assay); type: cell-based; settings: for MPO activity relative to control as 100%: 30 min after 100 nM PMA, PMA control reference about 275%; for % Inhibition MPO: 100 μM test peptide, two hour incubation with 100 nM PMA, human neutrophils; for increase of human neutrophil MPO release versus control level: 100 nM PMA
Source text: Human neutrophil isolation—These studies were approved by the human studies Institutional Review Board (IRB). Human neutrophils were isolated as previously described (see Takashi S, OkuboY, Horie S. Contribution of CD54 to human eosinophil and neutrophil superoxide production. J Appl Physiol 2001; 91:613-622) with slight modifications. Briefly, heparinized venous blood was obtained from normal healthy volunteers, diluted with RPMI-1640 (Cellgro; Mediatech, Inc., Herndon, VA) at a ratio of 1:1, layered onto a Histopaque (density, 1.077 g/ml; Sigma-Aldrich Co., St. Louis, MO) and centrifuged at 400 g for 20 min at 4° C. The supernatant and mononuclear cells at the interface were carefully removed, and erythrocytes in the sediment were lysed in chilled distilled water. Isolated granulocytes were washed twice with Hanks' balanced salts solution (HBSS) and resuspended in HBSS on ice.
Measurement of released neutrophil MPO activity—For measurement of MPO release, purified human neutrophils suspended in HBSS were aliquoted at 4×10^6 cells/ml in 15 ml tubes and preincubated with either 50 or 100 μM of MANS, RNS, or one of the peptides of invention for 10 min at 37° C. The cells then were stimulated with 100 nM phorbol 12-myristate 13-acetate (PMA) for up to 3 hrs. A control reference (PMA control reference) was established using purified human neutrophils suspended in HBSS aliquoted at 4×10^6 cells/ml in 15 mL tubes and stimulated with 100 nM phorbol 12-myristate 13-acetate (PMA) in the absence of a test peptide for the same time periods. The reaction was terminated by placing the tubes on ice and centrifugation at 400 g for 5 min at 4° C.
MPO activity in the cell supernatant was assayed using tetramethylbenzidine (TMB) based on a previously established technique (Abdel-Latif D, Steward M, Macdonald D L, Francis G A., Dinauer M C, Lacy P. Rac2 is critical for neutrophil primary granule exocytosis. Blood 2004; 104:832-839). Briefly, 100 μL of TMB substrate solution was added to 50 μL of cell supernatants or standard human MPO (EMD Biosciences, Inc., San Diego, CA) in a 96-well microplate followed by incubation at room temperature for 15 min. The reaction was terminated by addition of 50 μL of 1M […] and absorbance was read at 450 nm in a spectrophotometric microplate reader (VERSA max, Molecular Devices, Sunnyvale, CA).
The data presented in the table below represents 100 μM concentration of test peptides and a two hour incubation with 100 nM PMA.

[1] = system: LPS-induced lung inflammation; assay: In vivo LPS-induced lung inflammation, BAL analysis; design: species or system mice; settings: for Hb / MPO / LDH / Total Protein: BAL fluid; for Inhibition of neutrophil migration: relative to PBS/LPS treatment
Method: This example was performed essentially according to methods described by Cox, G, Crossley, J., and Xing, Z.; Macrophage engulfment of apoptotic neutrophils contributes to the resolution of acute pulmonary inflammation in vivo; Am. J. Respir. Cell Mol. Biol. 12:232-237, 1995; Hirano S., Quantitative time-course profiles of bronchoalveolar lavage cells following intratracheal instillation of lipopolysaccharide in mice, Ind. Health 35:353-358, 1997; and Ulich T R, Watson L R, Yin S M, Guo K Z, Wang P, Thang H, and del Castillo, J. Am. J. Pathol. 138:1485-1496, 1991.
Thus, six to seven week old CD1 female mice weighing 15-20 grams were obtained from Charles River laboratories and housed in groups of 5 mice per cage. The animals received standard rodent diet and filtered water ad libitum. The animals were housed under NIH prescribed guidelines at standard temperature (64° to 79° F.) and relative humidity of 30 to 70%.
Five treatment groups of mice, with 5 animals in each group, were treated either with PBS followed by PBS, with PBS followed by LPS, with (myristoylated) MANS peptide followed by LPS, with acetylated peptide of SEQ ID NO: 1, followed by LPS, or with acetylated peptide of SEQ ID NO: 106, followed by LPS.
Intranasal peptide instillation pre-treatment: A peptide of the invention to be evaluated in vivo for its ability to inhibit or reduce LPS-induced lung inflammation was dissolved in PBS at a concentration of 1 mM. Animals, anesthetized with 0.8% isofluorane by inhalation, were pretreated with 2×10 μL intranasal bolus of the peptide solution into one nostril 30 minutes prior to subsequent instillation with LPS.
Intranasal LPS instillation: Lipopolysaccharide (LPS) Endotoxin (Escherichia coli Serotype 011:B4 derived endotoxin; Sigma, St Louis, MO; see Sigma product information sheet L4130 titled Lipopolysaccharides from Escherichia coli 011:B4) was dissolved into phosphate buffered saline (PBS) at 2,500 μg/mL. To expose animals to endotoxin, a 10 μL intranasal bolus of 2,500 μg/ml endotoxin solution was administered to animals which had been anesthetized with 0.8% isofluorane by inhalation. The 10 μL bolus was applied into one nostril. Animals were monitored for labored breathing, lethargy, and decreased water/food intake following the endotoxin instillations.
Bronchoalveolar Lavage (BAL): Six hours after the last instillation, the animals were anesthetized (90 mg/kg Nembutal) and sacrificed by exsanguination. The lung was serially lavaged 2 times with 1.0 mL aliquots of PBS. The collected BAL fluid was centrifuged to remove the cells for subsequent counting and differential analysis. Recovered lavage fluid was used for analysis of total protein, myeloperoxidase (MPO), LDH, and hemoglobin.
Analysis: Aliquots of the BAL fluid were used immediately to assay for the levels of LDH, total protein, or hemoglobin using the COBAS Fara analyzer (COBAS FARA II automated analyzer; Roche Diagnostic Systems Inc., Montclair, NJ). An aliquot of BAL fluid was frozen at −80° C. for subsequent quantitation of myeloperoxidase (MPO) with a mouse-specific ELISA assay (Cell Sciences, Inc., Canton, Mass). BAL data were analyzed by standard techniques to examine differences between the control and treatment groups.

CCCCCCCCCCCCCC(=O)NCC(=O)N[C@@H](C)C(=O)N[C@@H](CCC(N)=O)C(=O)N[C@@H](Cc1ccccc1)C(=O)N[C@@H](CO)C(=O)N[C@@H](CCCCN)C(=O)N[C@H](C(=O)N[C@@H](C)C(=O)N[C@@H](C)C(=O)N[C@@H](CCCCN)C(=O)NCC(=O)N[C@@H](CCC(=O)O)C(=O)N[C@@H](C)C(=O)N[C@@H](C)C(=O)N[C@@H](C)C(=O)N[C@@H](CCC(=O)O)C(=O)N[C@@H](CCCNC(=N)N)C(=O)N1CCC[C@H]1C(=O)NCC(=O)N[C@@H](CCC(=O)O)C(=O)N[C@@H](C)C(=O)N[C@@H](C)C(=O)N[C@H](C(=O)N[C@@H](C)C(=O)O)C(C)C)[C@@H](C)O [MANS] (Myristoyl-GAQFSKTAAKGEAAAERPGEAAVA-OH; C-terminus assumed)
MPO activity relative to control as 100% (human neutrophils; 50 μM): about 275%
reduction in MPO release versus the PMA control reference (human neutrophils; 50 μM, 1 hr): about 15%
MPO activity % of control (human neutrophils; 50 μM, 1 hr, PMA control reference about 340%): about 290%
reduction of MPO release versus the PMA control reference (human neutrophils; 50 μM, 2 hours): approximately 30%
MPO activity % of control (human neutrophils; 50 μM, 2 hours, PMA control reference about 540%): about 375%
reduction of MPO release versus the PMA control reference (human neutrophils; 50 μM, 3 hours): approximately 33%
MPO activity % of control (human neutrophils; 50 μM, 3 hours, PMA control reference about 560%): about 375%
% Inhibition MPO (human neutrophils): 31.2%
MPO activity relative to control as 100% (human neutrophils; 100 μM): about 305%
reduction in MPO release versus the PMA control reference (human neutrophils; 100 μM, 1 hr): about 25%
MPO activity % of control (human neutrophils; 100 μM, 1 hr, PMA control reference about 340%): about 260%
reduction of MPO release versus the PMA control reference (human neutrophils; 100 μM, 2 hours): approximately 45%
MPO activity % of control (human neutrophils; 100 μM, 2 hours, PMA control reference about 540%): about 295%
reduction of MPO release versus the PMA control reference (human neutrophils; 100 μM, 3 hours): approximately 40%
MPO activity % of control (human neutrophils; 100 μM, 3 hours, PMA control reference about 560%): about 320%
effect on PMA-induced MPO release (human neutrophils; 50 and 100 μM, 30 min): no detected effect
Total cells counted ([1]; BAL 6 h after intranasal LPS, 2×10 μL 1 mM peptide intranasal 30 min before LPS, PBS/LPS 264,200, PBS/PBS 157,020): 208,457
Hb ([1]; Table 4 experiment, PBS/LPS 0.19, PBS/PBS 0.00): 0.05 g/dL
MPO ([1]; Table 4 experiment, PBS/LPS 28.98, PBS/PBS 3.28): 9.49 ng/mL
LDH ([1]; Table 4 experiment, PBS/LPS 60.40, PBS/PBS 68.20): 68.57 units/L
Total Protein ([1]; Table 4 experiment, PBS/LPS 272.40, PBS/PBS 125.60): 175.00 µg/mL
% Neutrophils of total cells ([1]; Table 4 experiment, PBS/LPS 41.7, PBS/PBS 18.7): 30.9%
Total neutrophils counted ([1]; Table 4 experiment, PBS/LPS 110,061, PBS/PBS 29317): 64,481
Inhibition of neutrophil migration [1]: 41.4%

CCCCCCCCCCCCCC(=O)O[C@@H]1[C@@H](C)[C@@]2(O)[C@@H](C=C(CO)C[C@]3(O)C(=O)C(C)=C[C@@H]23)[C@@H]2C(C)(C)[C@]12OC(C)=O [PMA, phorbol 12-myristate 13-acetate]
increase of human neutrophil MPO release versus control level (human neutrophils; 30 min): approximately threefold
increase of human neutrophil MPO release versus control level (human neutrophils; after 3 hrs): 5-6 fold

CCCCCCCCCCCCCC(=O)NCC(=O)N[C@H](C(=O)N[C@@H](C)C(=O)N1CCC[C@H]1C(=O)N[C@@H](C)C(=O)N[C@@H](C)C(=O)N[C@@H](CCC(=O)O)C(=O)NCC(=O)N[C@@H](C)C(=O)NCC(=O)N[C@@H](C)C(=O)N[C@@H](CCC(=O)O)C(=O)N[C@H](C(=O)N[C@@H](CCCCN)C(=O)N[C@@H](CCCNC(=N)N)C(=O)N[C@@H](C)C(=O)N[C@@H](CO)C(=O)N[C@@H](C)C(=O)N[C@@H](CCC(=O)O)C(=O)N[C@@H](C)C(=O)N[C@@H](CCCCN)C(=O)N[C@@H](CCC(N)=O)C(=O)N[C@@H](C)C(=O)N[C@@H](Cc1ccccc1)C(=O)O)C(C)C)[C@@H](C)O [RNS, reference compound] (Myristoyl-GTAPAAEGAGAEVKRASAEAKQAF-OH; C-terminus assumed)
% Inhibition MPO (human neutrophils): 0%
effect on PMA-induced MPO release (human neutrophils; any of the time points or concentrations tested): did not affect

Ac-GAQFSKTAAK [Ac-GAQFSKTAAK]
% Inhibition MPO (human neutrophils): 25.3%
Hb ([1]; Table 6 experiment, PBS/LPS 0.00, PBS/PBS 0.00): 0.00 g/dL
MPO ([1]; Table 6 experiment, PBS/LPS 7.19, PBS/PBS 4.88): 1.50 ng/mL
LDH ([1]; Table 6 experiment, PBS/LPS 78.20, PBS/PBS 61.80): 106.86 units/L
Total Protein ([1]; Table 6 experiment, PBS/LPS 116.4, PBS/PBS 113.8): 131.0 µg/mL
% Neutrophils of total counts ([1]; Table 6 experiment, PBS/LPS 24.4, PBS/PBS 21.3): 3.0%
Total Neutrophil counts ([1]; Table 6 experiment, PBS/LPS 80,077, PBS/PBS 66,521): 9,170
Total Cell Counts ([1]; Table 6 experiment, PBS/LPS 327,680, PBS/PBS 312,620): 305,688
Inhibition of neutrophil migration [1]: 88.5%

Ac-GAQFSKTAAKGEAAAERPGEAAVA
Hb ([1]; Table 5 experiment, PBS/LPS 0.01, PBS/PBS 0.00): 0.01 g/dL
MPO ([1]; Table 5 experiment, PBS/LPS 37.90, PBS/PBS 5.45): 30.79 ng/mL
LDH ([1]; Table 5 experiment, PBS/LPS 89.9, PBS/PBS 84.0): 74.5 units/L
Total Protein ([1]; Table 5 experiment, PBS/LPS 153.4, PBS/PBS 230.6): 182.75 µg/mL
% Neutrophils of total counts ([1]; Table 5 experiment, PBS/LPS 65.5, PBS/PBS 22.1): 41.47%
Total Neutrophil counts ([1]; Table 5 experiment, PBS/LPS 164,578, PBS/PBS 19,770): 105,499
Total Cell Counts ([1]; Table 5 experiment, PBS/LPS 251,360, PBS/PBS 89,440): 254,400
Inhibition of neutrophil migration [1]: 35.9%
